Source: the supplement of paper PMC10307832

What was measured:
Assay in all cases: relative viability (nuclei count vs DMSO), 5 days (fraction); higher = more cells survive
[1] = compound: COc1cc2ncn(-c3cc(OCc4ccccc4C(F)(F)F)c(C(N)=O)s3)c2cc1OC
Method in brief: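 Lung cancer cell lines were seeded into 1536-well plates, kept overnight at 37 °C and pinned with five library-drug doses (not always all listed) spaced by √10. After 5 days, nuclei were Hoechst-stained, imaged at 4× and counted with MetaXpress. Viability is treated-well nuclei over vehicle-well nuclei, taken as a median across plates. Plates needed control CV below 25% and at least one doubling.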

[2] = compound: COc1cc2ncn(-c3cc(OCc4ccccc4C(F)(F)F)c(C(N)=O)s3)c2cc1OC + CC(=O)c1c(C)c2cnc(Nc3ccc(N4CCNCC4)cn3)nc2n(C2CCCC2)c1=O [Palbociclib] (partner 0.5 µM)
Method in brief: (§1)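 Values are medians from duplicate plates. Each reflects relative viability, defined as the nuclei count of treated wells over that of vehicle wells. Lung cancer cell lines in 1536-well plates were pin-tool dosed one day after seeding with one drug alone or with a fixed anchor-drug dose plus five library-drug doses (not always all listed) in √10 steps, then fixed, stained and imaged at 4× after 5 days.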

[3] = compound: COc1cc2ncn(-c3cc(OCc4ccccc4C(F)(F)F)c(C(N)=O)s3)c2cc1OC + COc1cc2c(Oc3ccc(NC(=O)C4(C(=O)Nc5ccc(F)cc5)CC4)cc3F)ccnc2cc1OCCCN1CCOCC1 [Foretinib] (partner 0.25 µM)
Method in brief: as §1

[4] = compound: COc1cc2ncn(-c3cc(OCc4ccccc4C(F)(F)F)c(C(N)=O)s3)c2cc1OC + COc1cccc2cc(-c3nc([C@H]4CC[C@H](C(=O)O)CC4)n4ncnc(N)c34)[nH]c12 [OSI-027] (partner 0.5 µM)
Method in brief: as §1

Cell Line	relative viability ([1]; 0.05 µM)	relative viability ([1]; 0.1581 µM)	relative viability ([1]; 0.5 µM)	relative viability ([1]; 1.581 µM)	relative viability ([1]; 5 µM)	relative viability ([2]; first compound 0.05 µM)	relative viability ([2]; first compound 0.1581 µM)	relative viability ([2]; first compound 0.5 µM)	relative viability ([2]; first compound 1.581 µM)	relative viability ([2]; first compound 5 µM)	relative viability ([3]; first compound 0.05 µM)	relative viability ([3]; first compound 0.1581 µM)	relative viability ([3]; first compound 0.5 µM)	relative viability ([3]; first compound 1.581 µM)	relative viability ([3]; first compound 5 µM)	relative viability ([4]; first compound 0.05 µM)	relative viability ([4]; first compound 0.1581 µM)	relative viability ([4]; first compound 0.5 µM)	relative viability ([4]; first compound 1.581 µM)	relative viability ([4]; first compound 5 µM)
NCI-H1666	0.971	0.907	0.74	0.451	0.449	0.631	0.637	0.597	0.414	0.445	0.927	0.832	0.507	0.393	0.354	0.895	0.778	0.543	0.362	0.366
NCI-H1734	1.02	1.02	0.591	0.224	0.174	0.315	0.334	0.325	0.203	0.171	0.85	1.06	0.56	0.257	0.204	0.619	0.688	0.489	0.26	0.194
NCI-H1755	0.965	1.02	0.96	0.475	0.371	0.452	0.442	0.429	0.316	0.328	0.583	0.896	0.635	0.362	0.315	0.785	0.688	0.467	0.314	0.266
NCI-H1793	1.08	1.12	0.568	0.208	0.191	0.229	0.357	0.233	0.247	0.177	0.925	0.825	0.506	0.24	0.164	0.3	0.299	0.161	0.144	0.116
NCI-H1915	1.01	0.947	0.784	0.132	0.105	0.456	0.493	0.347	0.114	0.0905	1.08	1.03	0.702	0.204	0.141	0.657	0.543	0.321	0.136	0.114
NCI-H1944	1.18	1.03	0.707	0.23	0.141	0.412	0.373	0.308	0.205	0.119	0.804	1.03	0.743	0.221	0.131	0.589	0.396	0.254	0.14	0.112
NCI-H1975	1.09	0.902	0.643	0.226	0.17	0.613	0.33	0.193	0.198	0.148	0.932	0.961	0.516	0.155	0.138	0.66	0.547	0.328	0.109	0.1
NCI-H1993	1.1	0.855	0.469	0.605	0.534	0.512	0.67	0.561	0.513	0.431	0.652	0.884	0.662	0.579	0.569	0.477	0.549	0.429	0.438	0.491
NCI-H2009	0.909	0.905	0.472	0.232	0.174	0.191	0.203	0.188	0.178	0.127	1.07	1.1	0.89	0.354	0.248	0.487	0.56	0.209	0.176	0.135
NCI-H2023	0.955	1.07	0.566	0.115	0.0893	0.397	0.41	0.265	0.0834	0.0792	0.765	0.799	0.725	0.416	0.0871	0.323	0.391	0.185	0.0955	0.0617
NCI-H2085	0.925	1.03	0.759	0.402	0.407	0.423	0.476	0.488	0.38	0.244	0.931	1	0.566	0.294	0.31	0.739	0.731	0.316	0.295	0.203
NCI-H2087	1.08	0.923	0.628	0.135	0.124	0.232	0.185	0.24	0.0808	0.106	1.16	1.21	0.261	0.117	0.128	0.747	0.471	0.181	0.101	0.0877
NCI-H2126	1.02	1	0.754	0.329	0.236	0.373	0.31	0.348	0.273	0.265	1.21	1.26	0.672	0.365	0.318	0.715	0.771	0.604	0.289	0.22
NCI-H2170	1.01	0.907	0.473	0.202	0.197	0.401	0.371	0.212	0.165	0.148	0.942	0.985	0.468	0.269	0.202	0.703	0.667	0.365	0.173	0.183
NCI-H2228	1.01	0.853	0.417	0.166	0.188	0.767	0.328	0.352	0.192	0.259	0.85	0.739	0.351	0.1	0.162	0.662	0.558	0.192	0.134	0.179
NCI-H2342	1.09	1	0.855	0.623	0.466	0.519	0.509	0.513	0.437	0.422	1.13	0.951	0.876	0.475	0.567	0.614	0.579	0.56	0.416	0.375
